Results: patent publication US11123329B1, “Use of angiotensin II type 2 receptor agonist” (Vicore Pharma AB, priority 2020, dated 2021)

How the values were obtained:
E-cadherin expression = conditions: SAEMyoF
Excerpt: The effect of C21 on E-cadherin expression was studied using the human disease model BioMAP® platform (fibrosis panel) with ELISA-based protein biomarker detection in a human small airway epithelial cell plus lung fibroblast (SAEMyoF) assay (a service provided by Eurofins DiscoverX Corporation, Fremont, Calif., USA).

ACE2 = conditions: in particular in inflamed lung tissue; cited from earlier work
acute lung injury = conditions: model of acute lung injury; cited from earlier work
AT2R = conditions: in particular in inflamed lung tissue; cited from earlier work
[1] = end of treatment, 100 mg b.i.d. oral, 7 days on top of standard of care, n=51

For `CCCCOC(=O)NS(=O)(=O)c1sc(CC(C)C)cc1-c1ccc(Cn2ccnc2)cc1` [Compound C21, N-butyloxycarbonyl-3-(4-imidazol-1-ylmethylphenyl)-5-isobutylthiophene-2-sulfonamide], the “level of circulating biomarker of inflammation CRP, versus placebo” value (SARS-CoV-2 infection; 100 mg b.i.d., 7 days) was “no significant differences”, the “level of circulating biomarker of inflammation IL-6, versus placebo” value (SARS-CoV-2 infection; 100 mg b.i.d., 7 days) was “no significant differences” and the “level of circulating biomarker of inflammation TNF, versus placebo” value (SARS-CoV-2 infection; 100 mg b.i.d., 7 days) was “no significant differences”. For the same compound, the tolerability (SARS-CoV-2 infection; 100 mg b.i.d., 7 days, COVID-19 patients) was “well tolerated”, the deaths (SARS-CoV-2 infection; 100 mg b.i.d., 7 days, n=51) was 1 and the “number of patients needing mechanical ventilation” value (SARS-CoV-2 infection; 100 mg b.i.d., 7 days, n=51) was 1. The “total number of reported adverse events” value (SARS-CoV-2 infection; 100 mg b.i.d., 7 days, n=51) was 64, the “beneficial effect on need of oxygen supply versus placebo” value (SARS-CoV-2 infection; 100 mg b.i.d., 7 days, C21 n=51 vs placebo n=56) was “statistically significant at the predefined 10% level” and the “number of patients that needed oxygen supply” value (SARS-CoV-2 infection; [1]) was 14. The “patients that needed oxygen supply, share of group” value (SARS-CoV-2 infection; [1]) was 27%, the “reduction of E-cadherin at lower concentrations” value (E-cadherin expression; 0.37, 1.1 and 3.3 μM of C21) was “did not reduce E-cadherin” and the “effect on E-cadherin levels” value (E-cadherin expression; 0.37-10 μM) was “dose-dependently reduced”. For the same compound, the “expression of ACE2” value (ACE2) was “increase the expression”, the “pulmonary gas exchange or other relevant beneficial clinical effects” value (acute lung injury) was “not to improve” and the “expression of AT2R” value (AT2R) was “increase the expression”.
